# According to patent US20160152679A1, “RELAXIN-LIKE COMPOUNDS AND USES THEREOF” (ANGION BIOMEDICA CORP., priority 2012, published 2016):
# System: parental HEK-293T cells
# Assay: cAMP-Glo assay in parental HEK-293T cells lacking RXFP1
# Format: cell-based
# Conditions: parental HEK-293T cells (lack RXFP1); relaxin 10 ng/mL or compound 10 µg/mL; 30 or 60 min
substance,measurement,value
relaxin,cAMP response in parental cells,no cAMP response
